Data on two molecules can be found in US9776989B2, “Chromone alkaloid dysoline for the treatment of cancer and inflammatory disorders” (Council of Scientific & Industrial Research, priority 2013, dated 2017).

For series [1], the system named is IL-6. In words: Inhibition of IL-6 production in splenocytes (ELISA). The note with it: Splenocyte, mouse splenocytes, Con A or LPS, 72 h, read-out: Percentage inhibition of cytokine production, IL-6. The class given is cell-based, male Balb/c mice. On the procedure:
(§1) Anti-inflammatory activity of dysoline (1) was evaluated by inhibiting production of pro-inflammatory cytokines such as tumor necrosis factor-alpha (TNF-α) and interleukin-6 (IL-6). […] The TNF-α inhibition activity of dysoline was compared with rohitukine.
(§2) Splenocytes of male Balb/c mice were seeded into three to four wells of a 96-well flat-bottom microtiter plate (Nunc) at 2×10^6 cells/ml. Cells were incubated with different concentrations of dysoline (0.01 μM-100 μM) along with Con A (2.5 μg/well) or LPS (1 μg/ml) for 72 h at 37° C. with 5% CO2 in CO2 incubator. The culture supernatants were harvested and the measurement of cytokines (TNF-α and IL-6) in the culture supernatants was carried out using commercial kits as per manufacturer's instructions by using ELISA kits (R&D, USA) (Life Sci. 2007, 80, 1525-1538; J. Immunol. Methods 1983, 65, 55-63).
On the technique in general: ELISA stands for enzyme-linked immunosorbent assay.

In series [2] the test system is HCT116 (colon). In words: MTT cell viability assay, HCT116. The class given is cell-based. The note with it: Homo sapiens, HCT-116, 48 h treatment. The procedure:
(§3) Anticancer activity of dysoline (1) along with rohitukine was evaluated using MTT cell viability assay on […] cancer cell lines viz. Colo205 (colon), HCT116 (colon), HT1080 (fibrosarcoma), NCIH322 (lung), A549 (lung), Molt-4 (leukemia) and HL60 (leukemia).
(§4) The cell were originated from The European Collection of Cell Cultures (ECACC, UK) and purchased through Sigma-Aldrich India.
(§5) The MTT assay was used to assess the effect of the test molecules on cell viability. Cell viability on eight cell lines viz. Colo205 (colon), HCT116 (colon), HT1080 (fibrosarcoma), NCIH322 (lung), A549 (lung), Molt-4 (leukemia) and HL60 (leukemia) was investigated. In each well of a 96-well plate, 3×10^3 cells were grown in 100 μL of medium. After 24 h, each test molecules were added to achieve a final concentration of 10 to 0.01 μmol/L, respectively. After 48 h of treatment, 20 μL of 2.5 mg/mL MTT (Organics Research, Inc.) solution in phosphate buffer saline was added to each well. After […], supernatant was removed and formazan crystals were dissolved in 200 μL of DMSO. Absorbance was then measured at 570 nm using an absorbance plate reader (Bio-Rad Microplate Reader). Data are expressed as the percentage of viable cells in treated relative to non-treated conditions. Each experiment was repeated thrice and data was expressed as mean±SD of three independent experiments (Mol. Cancer Ther. 2010, 9, 358-368).

The subject of series [3] is HL60 (leukemia). The experiment in a line: MTT cell viability assay, HL-60. The note with it: Homo sapiens, HL-60 (leukemia), 48 h treatment. The series is classed as cell-based. The procedure: as §3, §4, §5
For orientation: Tetrazolium dyes change colour on reduction, which living cells bring about.

Series [4] is described as follows: Stability. The series is classed as physicochemical.
The test system of series [5] is NCIH322 (lung). The experiment in a line: MTT cell viability assay, NCIH322. The series is classed as cell-based. The note with it: NCI-H322, 48 h treatment. On the procedure:
as §3, §4, §5

Series [6] relates to A549 (lung). In words: MTT cell viability assay, A549. The series is classed as cell-based. The note with it: Homo sapiens, 48 h treatment. The procedure:
as §3, §4, §5

Series [7] relates to TNF-α. The experiment in a line: Inhibition of TNF-α production in splenocytes (ELISA). The series is classed as cell-based, male Balb/c mice. The note with it: 72 h, Con A or LPS; for inhibition at 0.01 µM / inhibition at 0.1 µM / inhibition at 1 µM / inhibition at 10 µM / inhibition at 100 µM: Mus musculus, Splenocyte, read-out: Percentage inhibition of cytokine production, TNF-α. On the procedure: as §1, §2

Series [8] concerns Colo205 (colon). In words: MTT cell viability assay, Colo205. The class given is cell-based. The note with it: Homo sapiens, COLO 205, 48 h treatment. On the procedure:
as §3, §4, §5

The nature of series [9]: Water solubility. The class given is physicochemical.
Series [10] concerns Molt-4 (leukemia). In words: MTT cell viability assay, MOLT-4. The class given is cell-based. The note with it: Homo sapiens, 48 h treatment. On the procedure: as §3, §4, §5
Series [11] concerns HT1080 (fibrosarcoma). The experiment in a line: MTT cell viability assay, HT1080. The class given is cell-based. The note with it: 48 h treatment. The procedure:
as §3, §4, §5

The test system of series [12] is HL-60 promyelocytic leukemia. The note with it: human HL-60 promyelocytic leukemia; cited from earlier work.
Series [13] deals with HCT-116 colon cancer cells. The note with it: cited from earlier work.

As a reminder, the inhibition is the change of the read-out against control, counted positive when it falls. The IC50 is the concentration that inhibits the measured activity by half. A higher IC50 goes with lower potency. Usually melting point stands for the temperature of the solid-liquid transition. The molecule `Cc1cc(=O)c2c(O)c(C3CCN(C)CC3O)c(O)cc2o1` (centres unmarked) [Dysoline (1), 5,7-dihydroxy-6-(3-hydroxy-1-methylpiperidin-4-yl)-2-methyl-4H-chromen-4-one] had a melting point of 310 to 315 °C. In [1], the inhibition at 0.01 µM was found to be 72%, the inhibition at 0.1 µM was determined as 83%, the inhibition at 1 µM was 83% and the inhibition at 10 µM was 89%. Besides, the inhibition at 100 µM in series [1] amounted to 99%. The same molecule had an IC50 in series [2] above 10 µM. This molecule showed an IC50 in series [3] of 10 µM. Further, in [4], the stability entry is reported as “stable”. In series [5], this molecule displayed an IC50 above 10 µM. Moreover, the IC50 in series [6] was above 10 µM. Also, in series [7], the inhibition at 0.01 µM worked out at 28%, the inhibition at 0.1 µM stood at 47%, the inhibition at 10 µM was 54% and the inhibition at 100 µM worked out at 56%. Further, in series [7] (1 μM), the inhibition at 1 µM came out at 53%. This molecule also registered an IC50 in series [8] above 10 µM. For the same molecule, the water solubility entry in [9] is given as “good water solubility”. The concentration for half-maximal inhibition (IC50) in series [10] was above 10 µM. This molecule also displayed an IC50 in [11] (Homo sapiens, HT-1080, 48 h) of 0.21 µM.

In the case of `Cc1cc(=O)c2c(O)cc(O)c([C@H]3CCN(C)C[C@H]3O)c2o1` [Rohitukine, 5,7-dihydroxy-2-methyl-8-[4-(3-hydroxy-1-methyl)-piperidinyl]-4H-1-benzopyran-4-one], the results for the inhibition at 0.01 µM in series [1] and in series [7] were 10% and 18%, respectively. Further, the inhibition at 0.1 µM in series [1] is 30%; in series [7], 22%. Moreover, the figures for the inhibition at 1 µM in series [1] and in series [7] (1 μM) were 80% and 32%, respectively. Further, the inhibition at 10 µM in [1] amounted to 88%; in series [7], 32%. In addition, the results for the inhibition at 100 µM in series [1] and in series [7] were 89% and 47%, respectively. In addition, the half-inhibitory concentration (IC50) in series [2] is above 10 µM; in series [3], 10 µM; in series [5], above 10 µM; in [6] it was above 10 µM; in series [8], above 10 µM; in [10] it was above 10 µM. Also, the IC50 in series [11] is above 10 µM; in [11] (Homo sapiens, HT-1080, 48 h), below 10 µM. Further, in series [7] (1 μM, mouse splenocytes), the “Percentage inhibition of cytokine production, TNF-α” value is reported as 28%. Besides, the cytotoxicity entry in series [12] and in series [13] was “moderate cytotoxicity” in each case.
